For the assay, the target named is Methionine aminopeptidase 2 (Homo sapiens, UniProt P50579). Nature of the assay: 10 mM stock solutions of compounds were prepared in 100% DMSO and further diluted in 100% DMSO required concentration to 1 mM stocks. The stock compound solutions and DMSO vehicle controls were diluted to target final compound concentrations using assay buffer to a final concentration of 50 mM HEPES containing 100 mM NaCl, pH adjusted to 7.5. The MAS peptide was formulated to a 7.5 mM stock in distilled water and prior to use further diluted 1:4. […] 40 μl of enzyme was mixed with 100 μl of MnCl2 then further diluted in assay buffer to a final concentration of 16 μg/ml. To test for compound effect on MetAP2 enzyme activity, 5 μl of test compound, 10 μl of MAS substrate/amino acid oxidase mixture, 10 μl of MetAP2 was added to test wells in a 384 well black plate with blank wells containing no enzyme, replaced with 10 μl of assay buffer. All compounds were tested in duplicate on two occasions on the same day. […] The plate was sealed with a TopSeal A cover and mixed briefly on an orbital mixer at 900 rpm. The plate was incubated for a further 25 minutes at 25° C. A 5× stock of Amplex buffer was prepared (0.25M sodium phosphate, pH 7.4) and stored at 4° C. […] 25 μl detection reagent was added to each well of the test plate, which was re-sealed and mixed briefly on an orbital shaker.
Sequence of Methionine aminopeptidase 2 (P50579 whole entry): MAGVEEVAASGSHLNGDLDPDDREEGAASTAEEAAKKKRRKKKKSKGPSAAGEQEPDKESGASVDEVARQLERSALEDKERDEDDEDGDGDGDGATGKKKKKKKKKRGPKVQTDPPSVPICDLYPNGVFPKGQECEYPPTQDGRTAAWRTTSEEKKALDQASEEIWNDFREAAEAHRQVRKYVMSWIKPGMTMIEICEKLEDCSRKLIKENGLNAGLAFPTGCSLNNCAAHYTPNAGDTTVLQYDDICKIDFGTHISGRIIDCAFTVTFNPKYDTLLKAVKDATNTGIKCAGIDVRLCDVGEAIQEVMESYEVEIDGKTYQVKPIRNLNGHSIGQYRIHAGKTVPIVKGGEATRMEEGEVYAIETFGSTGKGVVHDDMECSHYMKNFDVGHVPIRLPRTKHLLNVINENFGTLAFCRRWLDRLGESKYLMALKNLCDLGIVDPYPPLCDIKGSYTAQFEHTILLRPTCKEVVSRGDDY

Data on two compounds can be found in ChEMBL document CHEMBL5725333, “Fumagillol heterocyclic compounds and methods of making and using same” (2017).

In the case of `CO[C@@H]1[C@H](OC(=O)N2CC(CCN3CCCC3)C2)CC[C@]2(CO2)[C@H]1[C@@]1(C)O[C@@H]1CC=C(C)C`, the half-inhibitory concentration (IC50) (commonly the concentration at which inhibition is half-maximal) was less than 50 nM.
`CCN(CC)CCNC(=O)OCC1CN(C(=O)O[C@@H]2CC[C@]3(CO3)[C@@H]([C@@]3(C)O[C@@H]3CC=C(C)C)[C@@H]2OC)C1`: the concentration for half-maximal inhibition (IC50) is less than 50 nM.
